According to patent US12403141B2, “Deuterated MK2 pathway inhibitors and methods of using the same” (ACLARIS THERAPEUTICS, INC., priority 2019, dated 2025):

Experiments:
dog hepatocytes = assay: In vitro metabolite profile in dog hepatocytes; format: in vitro ADME; set-up: key to UV % at 280-290 nm or observed (+ or --), metabolite M387 (O-dealkylation) / UV % at 280-290 nm or observed (+ or --), metabolite M532b (Hydroxylation) / UV % at 280-290 nm or observed (+ or --), metabolite M532c (Hydroxylation) / UV % at 280-290 nm or observed (+ or --), metabolite M532d (Hydroxylation) / UV % at 280-290 nm or observed (+ or --), metabolite M532e (Hydroxylation) / UV % at 280-290 nm or observed (+ or --), metabolite M563 (O-dealkylation + Glucuronidation) / UV % at 280-290 nm or observed (+ or --), metabolite M530b (Hydroxylation) / UV % at 280-290 nm or observed (+ or --), metabolite M530c (Hydroxylation) / UV % at 280-290 nm or observed (+ or --), metabolite M530d (Hydroxylation) / UV % at 280-290 nm or observed (+ or --), metabolite M530e (Hydroxylation): +: only detected by MS; --: not detected or trace; settings: 10 μM; for UV % at 280-290 nm, Parent-T0 min: T0 min (normalized as 100%)
Protocol: (§1) Briefly, each test compound (final concentration of 10 μM containing 0.1% DMSO) was incubated with rat, dog, minipig, monkey, or human hepatocytes (final viable cell density of 1×10^6 cells/mL) at 37° C. with 5% CO2 in HI hepatocyte maintenance media (BIOIVT; Catalog #Z99009) for 120 minutes. Reactions were initiated by combining 200 μL of pre-warmed 2× dosing solution containing 20 μM test compound and 0.2% DMSO in HI maintenance media with 200 μL of pre-warmed hepatocyte solution containing 2×10^6 cells/mL in HI maintenance media. Samples were taken at 0 minutes (T0) and 120 minutes (T120) by quenching the reaction with 1200 μL acetonitrile. After quenching, the samples were sonicated for 2 minutes and then centrifuged at 1400 rpm for 5 minutes. A 1400-μL aliquot of the supernatant was evaporated under a stream of N2 until dry. The dried extracts were then reconstituted with 200 μL acetonitrile: H2O (1:3 v/v), vortexed for 2 minutes and centrifuged at 14000 rpm for 5 minutes. A 2-μL aliquot of the supernatant was injected onto a Xevo UPLC-UV-G2-S Q-Tof system (Waters®) with positive-ion electrospray ionization for analysis. Chromatographic separation was achieved on an Acquity UPLC®BEH C18 column (2.1×50 mm, 1.7 μm; Waters®) by gradient elution using varying proportions of mobile phase A (H2O with 0.1% formic acid) and mobile phase B (acetonitrile with 0.1% formic acid) at a constant flow rate of 400 μL/minute over a total run time of 10 minutes. LC-UV-MS extract ion chromatograms (EIC) of the T120 samples were compared to the T0 samples to identify the major putative metabolites which were named as Mm/z.

[1] = system: rat, dog, minipig, monkey, and human hepatocytes; assay: In vitro metabolite profile in hepatocytes, summary across species; format: in vitro ADME; settings: hepatocytes from rat, 10 μM, 120 min
Protocol: as §1, with “Chromatographic separation was achieved on an Acquity UPLC®BEH C18 column (2.1×50 mm, 1.7 μm; Waters®) by gradient elution using varying proportions of mobile phase A (H2O with 0.1% formic acid) and mobile phase B (acetonitrile with 0.1% formic acid) at a constant flow rate of 400 μL/minute over a total run time of 10 minutes. LC-UV-MS extract ion chromatograms (EIC) of the T120 samples were compared to the T0 samples to identify the major putative metabolites which were named as Mm/z.” left out

[2] = 120 min, relative to parent at T0

Row | UV % at 280-290 nm or observed (+ or --), metabolite M387 (O-dealkylation) (dog hepatocytes; [2]) | UV % at 280-290 nm or observed (+ or --), metabolite M530b (Hydroxylation) (dog hepatocytes; [2]) | UV % at 280-290 nm or observed (+ or --), metabolite M530c (Hydroxylation) (dog hepatocytes; [2]) | UV % at 280-290 nm or observed (+ or --), metabolite M530e (Hydroxylation) (dog hepatocytes; [2]) | UV % at 280-290 nm or observed (+ or --), metabolite M563 (O-dealkylation + Glucuronidation) (dog hepatocytes; [2]) | UV % at 280-290 nm or observed (+ or --), metabolite M530d (Hydroxylation) (dog hepatocytes; [2]) | UV % at 280-290 nm, Parent-T120 min (dog hepatocytes; [2]) | UV % at 280-290 nm, Parent-T0 min (dog hepatocytes) | total number of metabolites formed [1] | UV % at 280-290 nm or observed (+ or --), metabolite M532b (Hydroxylation) (dog hepatocytes; [2]) | UV % at 280-290 nm or observed (+ or --), metabolite M532c (Hydroxylation) (dog hepatocytes; [2]) | UV % at 280-290 nm or observed (+ or --), metabolite M532e (Hydroxylation) (dog hepatocytes; [2]) | UV % at 280-290 nm or observed (+ or --), metabolite M532d (Hydroxylation) (dog hepatocytes; [2]) | SMILES
1 | 4.1% | -- | + | + | + | -- | 87.0% | 100.0% |  |  |  |  |  | Cc1cnc(-c2ccnc(C(C)(C)O)n2)cc1-n1c(C)cc(OCc2ncc(F)cc2F)c(Cl)c1=O (atropisomer, axis not shown; (P)) [Example 1-H2, (P)-3-chloro-4-((3,5-difluoropyridin-2-yl)methoxy)-2′-(2-(2-hydroxypropan-2-yl)pyrimidin-4-yl)-5′,6-dimethyl-2H-[1,4′-bipyridin]-2-one]
2 | + |  |  |  |  |  | 96.0% | 100.0% | 5 | -- | + | + | -- | [2H]C([2H])(Oc1cc(C)n(-c2cc(-c3ccnc(C(C)(C)O)n3)ncc2C)c(=O)c1Cl)c1ncc(F)cc1F (single isomer, unassigned) [Example 1-D2, (P)-3-Chloro-4-((3,5-difluoropyridin-2-yl)methoxy-d2)-2′-(2-(2-hydroxypropan-2-yl)pyrimidin-4-yl)-5′,6-dimethyl-2H-[1,4′-bipyridin]-2-one]
